Experimental data: patent US20100193777A1, “METHOD OF PRODUCING A DESUBSTITUTED COMPOUND, ORGANIC SEMICONDUCTOR FILM AND METHOD OF PRODUCING THE SAME” (FUJIFILM Corporation, priority 2007, published 2010)

What was measured:
Assay type in all cases: physicochemical
[1] = Light resistance test of dye films; settings: absorbance at maximum absorption wavelength, 48 h light resistance test
Protocol: The above-described thin films 1 to 4 were each stored for 24 hours under the conditions of 23° C. and 50% RH. Thereafter, these thin films were each subjected to a light resistance test using a merry-go-round type apparatus for testing of light resistance (Cell Testing Apparatus III, trade name, manufactured by Eagle Engineering Co., Ltd., with a filter WG 320, trade name, manufactured by Schott AG). Absorption spectra of the dye films just before the light resistance test and the dye films after the light resistance test for 48 hours were measured using UV-1600 PC (trade name, manufactured by Shimadzu Corporation). A change of absorbance at the maximum absorption wavelength was read from each absorption spectrum.

[2] = Solubility in a solvent (chloroform or water); settings: for solubility in water after heating: after heated at 250° C.
Protocol: In the first embodiment of the present invention, the term “solvent-soluble (being soluble in a solvent)” means to show a solubility of 0.1% by mass or more, more preferably 0.5% by mass or more, and further preferably 1% by mass or more, with respect to a solvent in interest when the solvent to which a compound in interest is added is heated under reflux and then cooled down to room temperature. Further, the term “solvent-insolubilization (to make a compound insoluble in a solvent)” means to reduce the solubility by one digit figure or more than the solvent-soluble state. Specifically, with respect to a solvent, when the solvent is heated under reflux and then cooled down to room temperature, it is preferable to reduce from the solubility of 0.1% by mass or more (solvent-soluble) to the solubility of 0.01% by mass or less, further preferably from the solubility of 0.5% by mass or more (solvent-soluble) to the solubility of 0.05% by mass or less, and especially preferably from the solubility of 1% by mass or more (solvent-soluble) to the solubility of less than 0.1% by mass. Further, the term “solvent-insoluble (being insoluble in a solvent)” means to show solubility of less than 0.1% by mass, preferably 0.05% by mass or less, and further preferably 0.01% by mass or less, with respect to a solvent in interest when the solvent to which a compound in interest is added is heated under reflux and then cooled down to room temperature.
There is no particular restriction in the kind of solvent when degrees of the above-described “solvent-soluble” and “solvent-insoluble” are defined. Accordingly, both “solvent-soluble” and “solvent-insoluble” may be defined in terms of solvent and temperature each of which is actually used. Alternatively, for example, these properties may be specified as solubility (25° C.) with respect to water (distilled water). However, the solvent used in the first embodiment of the present invention is not limited by the above.

[3] = TG/DTA thermal analysis (rate of decrease in mass on heating)
Protocol: The thermal analysis (TG/DTA measurement) of the thus-produced Exemplified compound (1) was conducted. The TG/DTA measurement was conducted at the rate of temperature increase of 10° C./min in a range of 30° C. to 550° C. under a current of nitrogen gas (flow rate: 200 ml/min) using EXSTAR 6000 (trade name, manufactured by Seiko Instruments Inc.), to determine a rate of decrease in mass. FIG. 1 is a graph showing TG/DTA measurement results of the Exemplified compound (1). Herein, in each of Examples and Comparative Examples described below, the measurement of TG was conducted using the same apparatus and under the same conditions as described above.
In FIG. 1, the uppermost curve indicates the change of mass with respect to temperature (TG.). The bottom curve indicates the heat going in and out with respect to temperature (enthalpy change) (DTA). The middle curve indicates the amount of change of TG (differential value) per time (DTG).

| Compound | solubility in a solvent such as chloroform [2] | solubility in water [2] | also measured |
| --- | --- | --- | --- |
| CC(C)(C)OC(=O)N1C(=O)C2=C(c3ccccc3)N(C(=O)OC(C)(C)C)C(=O)C2=C1c1ccccc1 [Compound 1 for comparison] |  |  | Residual rate after 48 hours ([1]; dye film after heating): 91%; Residual rate after 48 hours ([1]; dye film before heating): 1.9% |
| [Cu+2].c1ccc2c(c1)-c1nc-2nc2[n-]c(nc3nc(nc4[n-]c(n1)c1ccccc41)-c1ccccc1-3)c1ccccc21 [cupper phthalocyanine] | so low that a film was not formed |  |  |
| c1ccc2c(c1)-c1nc-2nc2[nH]c(nc3nc(nc4[nH]c(n1)c1ccccc41)-c1ccccc1-3)c1ccccc21 [metal-free phthalocyanine] | so low that a film was not formed | so low that a film was not formed |  |
| [Zn+2].c1ccc2c(c1)-c1nc-2nc2[n-]c(nc3nc([n-]c4nc(n1)-c1ccccc1-4)-c1ccccc1-3)c1ccccc21 [zinc phthalocyanine] | so low that a film was not formed | so low that a film was not formed |  |
| copper phthalocyanine-tetrasulfonic acid tetrasodium salt |  | soluble | temperature of desubstitution of the substituent ([3]; from TG and MS of heated residue): higher than 400 °C; reduction in weight in TG on heating ([3]; heated up to 400° C., after initial loss of solvent or water): did not cause any reduction in weight |
| metal-free phthalocyanine-tetrasulfonic acid [Exemplified compound (54)] |  | soluble | solubility in water after heating [2]: soluble |
| zinc phthalocyanine-tetrasulfonic acid [Exemplified compound (53)] |  | soluble | solubility in water after heating [2]: soluble |
